The values that follow come from patent US7662851B2, “Use of specific cyklolignans” (Axelar AB, priority 2001, dated 2010).

SMILES strings stand for the structures.

One series has as its target EGFR tyrosine kinase (Homo sapiens, UniProt P00533). The series is described as follows: In vitro tyrosine kinase assay: substrate phosphorylation by EGFR, cell-free. The series is classed as biochemical. The note with it: FIG. 3.
A further series deals with T1, IR tyrosine kinase (Homo sapiens, UniProt P06213).
T1 construct: Immunoprecipitated IR from HepG2; endogenous in cells; host or cells: HepG2 hepatoma cells (immunoprecipitate)
T1 sequence (P06213 28-1382): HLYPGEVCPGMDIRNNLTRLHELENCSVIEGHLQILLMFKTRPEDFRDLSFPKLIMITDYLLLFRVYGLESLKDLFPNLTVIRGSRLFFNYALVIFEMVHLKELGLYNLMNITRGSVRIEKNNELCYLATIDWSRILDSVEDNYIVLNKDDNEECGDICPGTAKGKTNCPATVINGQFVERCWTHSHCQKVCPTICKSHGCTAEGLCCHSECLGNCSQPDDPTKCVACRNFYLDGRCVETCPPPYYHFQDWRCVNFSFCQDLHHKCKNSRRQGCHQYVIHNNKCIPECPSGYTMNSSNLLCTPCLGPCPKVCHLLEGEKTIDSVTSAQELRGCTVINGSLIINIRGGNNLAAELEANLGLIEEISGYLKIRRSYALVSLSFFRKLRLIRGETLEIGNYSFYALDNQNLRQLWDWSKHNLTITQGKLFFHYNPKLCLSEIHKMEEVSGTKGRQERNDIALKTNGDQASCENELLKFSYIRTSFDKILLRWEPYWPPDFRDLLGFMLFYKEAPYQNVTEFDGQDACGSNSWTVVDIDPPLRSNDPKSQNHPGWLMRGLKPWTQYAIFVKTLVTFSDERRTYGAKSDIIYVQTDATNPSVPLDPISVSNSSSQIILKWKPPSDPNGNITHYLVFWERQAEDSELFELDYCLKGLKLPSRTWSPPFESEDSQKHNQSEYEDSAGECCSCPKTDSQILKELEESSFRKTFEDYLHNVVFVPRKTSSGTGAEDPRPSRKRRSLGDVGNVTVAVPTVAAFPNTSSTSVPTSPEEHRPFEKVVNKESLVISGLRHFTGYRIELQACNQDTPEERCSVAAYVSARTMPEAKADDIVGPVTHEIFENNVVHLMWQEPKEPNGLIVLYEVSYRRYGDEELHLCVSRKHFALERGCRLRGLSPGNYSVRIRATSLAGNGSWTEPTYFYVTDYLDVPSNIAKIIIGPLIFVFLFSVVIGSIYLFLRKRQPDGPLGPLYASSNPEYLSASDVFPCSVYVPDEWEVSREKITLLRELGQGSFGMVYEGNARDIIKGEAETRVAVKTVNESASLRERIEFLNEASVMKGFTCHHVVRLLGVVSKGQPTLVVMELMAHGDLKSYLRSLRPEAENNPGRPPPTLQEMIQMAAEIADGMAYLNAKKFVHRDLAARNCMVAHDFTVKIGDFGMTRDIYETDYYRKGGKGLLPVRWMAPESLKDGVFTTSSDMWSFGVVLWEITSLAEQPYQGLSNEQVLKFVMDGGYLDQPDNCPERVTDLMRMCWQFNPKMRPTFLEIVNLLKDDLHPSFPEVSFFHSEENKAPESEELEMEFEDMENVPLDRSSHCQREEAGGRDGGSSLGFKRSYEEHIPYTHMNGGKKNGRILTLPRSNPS
As to the kind of experiment: In vitro tyrosine kinase assay: substrate phosphorylation by IR, cell-free. In kind it is biochemical. The settings on record: FIG. 3. On the procedure:
IGF-1R-catalyzed substrate phosphorylation of polyTyrGlu (pTG) was performed essentially as previously described [Parrizas M., et al., ibid., and Blum G., et al., ibid.]. Immunoprecipitated IR from HepG2, IGF-1R from P6 cell extract and immunodepleted supernatant to assay non-IGF-1R tyrosine kinases. The phosphorylated polymer substrate was probed with a purified phosphotyrosine specific monoclonal antibody conjugated to horseradish peroxidase (HARP). Color was developed with HRP chromogenic substrate o-phenylene-diamine dihydrochloride (OPD). The color was quantitated by spectrophotometry (ELISA reader) and reflects the relative amount of tyrosine kinase. The precipitate was immunoblotted with anti-bodies to IGF-1R and IR to verify the presence of the receptor. Serial dilutions were used to assay the optimal conditions with respect to the amount of IGF-1R and IR. The signal was linear for 30 minutes and was a function of IGF-1R concentration up to 75 ng/well. […] After spectrophotometry the IC50 values of inhibitors were determined using the Regression function of Statistica program.
Therefore we isolated the receptor and determined the effects of picropodophyllin on IGF-1R catalyzed substrate tyrosine phosphorylation and IGF-1R autophosphorylation in-vitro.

The conditions of series [1]: nude, mouse, in vivo, ip, 28 mg/kg.
Series [2] deals with HL60/0 acute myeloid leukemia cells. The series is described as follows: Leukemia cell viability, HL60/0. The series is classed as cell-based, human. The note with it: Homo sapiens, HL-60; HL60, 72 h; read-out: IC50 for cell viability. Here is the method:
The human chronic myeloid leukemia K562/S and K562/Vcr30 lines and the acute myeloid leukemia cell lines HL60/0 and HL60/Nov were obtained from ATCC. The K562/S and […] are wild type (non-resistant) cells, whereas K562/Vcr30 and HL60/Nov are cytostatic-resistant sublines. All leukemia cell lines were cultured in RPMI 1640 medium supplemented with 10% fetal bovine serum and with 2 mM L-glutamine, benzylpenicillin (100 U/ml) and streptomycin (100 μg/ml). The cells were grown in tissue culture flasks maintained at 95% air/5% CO2 atmosphere at 37° C. in a humidified incubator. For the experiments cells were cultured in 60-mm plastic dishes or 96-well plastic plates.
(§1) Cell proliferation kit II (Roche Inc.) is based on colorimetric change of the yellow tetrazolium salt XTT in orange formazan dye by the respiratory chain of viable cells (Roehm, N W, et al., J Immunol Methods 142:257-265, 1991). Cells seeded at a concentration of 5000/well in 100 μl medium in a 96-well plate were treated with different drugs in the given concentration. After 24 or 48 h the cells were incubated, according to the manufacturer's protocol, with XTT labelling mixture. After 4 h the formazan dye is quantified using a scanning multiwell spectrophotometer with a 495-nm filter. The absorbance is directly correlated with the number of viable cells. The standard absorbance curve was drawn by means of untreated cells seeded at a concentration of from 1000 to 10 000 cells/well with an increasing rate of 1000 cells/well. All standards and experiments were performed in triplicates.
Cells of said cell lines were seeded in 96-well plates (25 000 cells/well, medium volume per well was 100 μl), in […] medium supplemented with fetal calf serum. After 24 h picropodophyllin and the derivatives alpha-apopicropodophyllin and beta-apopicropodo-phyllin were added at different concentrations and the cells were incubated for 72 h. Cell viability was then assayed (see above). […] The results are based on 3 different experiments.
The leukemia cell lines K562/S, […], HL60/0 and HL60/Nov were cultured in 96-well plates as described in Experiment 7. After 24 h, the cells were treated for 72 h with different concentrations of the anti-cancer agent vincristine, with and without co-incubation with 0.05 μM picropodophyllin. […] Cell viability was then assayed. IC50 values for each inhibitor and cell line are shown below (Table 8). The results are based on 3 different experiments.

Series [3] concerns SK-MEL-2 melanoma cell line. As to the kind of experiment: Cell viability (XTT, Cell proliferation kit II), SK-MEL-2. The note with it: Homo sapiens, SK-MEL-2, 48 h. The series is classed as cell-based. Here is the method: as §1
(§2) 12 different types of cell lines were seeded in 96-well plates (medium volume in a well was 100 μl), at a concentration of 10,000 cells/cm^2 in Minimal Essential Medium supplemented with fetal calf serum. When the cells had reached a concentration of 65,000 cells/cm^2, they were treated with different doses of podophyllotoxin and picropodophyllin for 48 h. Cell viability was then assayed (see above). […]
(Tetrazolium dyes change colour on reduction, which living cells bring about.)

The subject of series [4] is BE malignant melanoma cell line. As to the kind of experiment: Cell viability (XTT), BE. The series is classed as cell-based. The settings on record: 48 h. On the procedure: as §1, §2

Chain of EGFR tyrosine kinase (P00533 25-1210): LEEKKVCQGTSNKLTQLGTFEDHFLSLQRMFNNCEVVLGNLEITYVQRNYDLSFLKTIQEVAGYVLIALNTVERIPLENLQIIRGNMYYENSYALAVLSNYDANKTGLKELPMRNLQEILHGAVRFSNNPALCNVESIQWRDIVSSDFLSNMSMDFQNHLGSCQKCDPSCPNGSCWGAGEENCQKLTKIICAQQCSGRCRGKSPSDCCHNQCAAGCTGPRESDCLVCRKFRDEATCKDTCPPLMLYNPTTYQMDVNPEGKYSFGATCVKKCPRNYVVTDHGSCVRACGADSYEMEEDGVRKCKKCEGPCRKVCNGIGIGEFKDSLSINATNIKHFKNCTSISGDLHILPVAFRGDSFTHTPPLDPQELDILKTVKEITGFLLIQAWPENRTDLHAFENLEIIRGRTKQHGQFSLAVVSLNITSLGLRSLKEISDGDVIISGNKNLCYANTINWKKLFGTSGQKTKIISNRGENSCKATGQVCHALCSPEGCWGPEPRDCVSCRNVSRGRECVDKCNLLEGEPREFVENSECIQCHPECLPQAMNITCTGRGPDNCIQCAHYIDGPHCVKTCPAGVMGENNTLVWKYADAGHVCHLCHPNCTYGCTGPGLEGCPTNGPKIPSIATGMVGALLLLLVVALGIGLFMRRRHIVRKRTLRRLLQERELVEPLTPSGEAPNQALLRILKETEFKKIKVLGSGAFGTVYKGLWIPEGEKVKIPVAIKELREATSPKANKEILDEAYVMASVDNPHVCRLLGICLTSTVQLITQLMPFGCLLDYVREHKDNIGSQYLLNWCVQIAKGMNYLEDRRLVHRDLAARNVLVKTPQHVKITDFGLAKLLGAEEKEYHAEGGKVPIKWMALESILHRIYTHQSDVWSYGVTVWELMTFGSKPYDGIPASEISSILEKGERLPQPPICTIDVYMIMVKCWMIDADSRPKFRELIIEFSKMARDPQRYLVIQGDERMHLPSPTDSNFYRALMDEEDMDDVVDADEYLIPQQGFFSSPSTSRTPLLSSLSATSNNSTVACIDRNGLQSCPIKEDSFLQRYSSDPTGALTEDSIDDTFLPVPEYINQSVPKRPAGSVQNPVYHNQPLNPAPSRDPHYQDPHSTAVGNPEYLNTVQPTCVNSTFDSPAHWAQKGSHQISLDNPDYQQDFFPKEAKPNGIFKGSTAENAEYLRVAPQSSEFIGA

A word on the IC50: it is the concentration that gives 50% inhibition. In the case of `COc1cc([C@@H]2c3cc4c(cc3[C@H](O)[C@H]3COC(=O)[C@@H]23)OCO4)cc(OC)c1OC` [Picropodophyllin, picropodophyllin], the “Interference with substrate phosphorylation of EGFR tyrosine kinase” value at EGFR tyrosine kinase is “failed to interfere”. Moreover, the “Interference with substrate phosphorylation of IR tyrosine kinase” value at IR tyrosine kinase is recorded as “failed to interfere”. In series [1], the “Average concentration in the blood plasma” value is “above 0.05 μM”. The IC50 in series [2] was found to be 0.17 µM.
As a reminder, the EC50 is the concentration needed to bring the measured effect to its halfway point. Lower therefore signals a more potent agent. Regarding `COc1cc([C@@H]2c3cc4c(cc3[C@H](O)[C@H]3COC(=O)[C@H]23)OCO4)cc(OC)c1OC` [Podophyllotoxin, podophyllotoxin], the EC50 in series [3] and in series [4] was 0.05 µM in each case.
